Where “and” joins values, the source holds several entries; their conditions need not be identical. Identical values can stand only once.
Assay: impurities levels (Mesna disulphide percentage) of lyophilizate Mesna compositions
Format: physicochemical
Details: content in composition
Experimental: Measurements of Mesna disulfide percentage were conducted for different Mesna lyophilizates made according to the present invention. The compositions of the tested Mesna lyophilizates comprised 125 mg or 250 mg of Mesna in 2 ml Water for Injection. Other tested Mesna lyophilizates compositions further comprised trehalose or Mannitol. […] Any slightly higher increase was of maximum 0.5% compared to the Mesna disulfide percentage measured for the pharmaceutical grade Mesna (Table 2). […] In addition, the sum of Mesna disulphide percentage and other impurities percentage was also always lower than said maximum of 3%.

MESNA: 98.82% and 98.80% and 98.96%
Other impurities: 0.15% and 0.20% and 0.19%
Mesna disulphide (stability marker): 1.03% and 1.00% and 0.85%
SMILES: O=S(=O)([O-])CCS.[Na+] [Mesna P, Sodium 2-mercaptoethanesulfonate]

Reference: patent publication US10220010B2 (AuXin Surgery SA, priority 2014, dated 2019)
